molecular target: PI3Kβ (Homo sapiens (Human), UniProt P42338); experiment: PI3K isoform TR-FRET enzymatic assay (PI3Kβ); type: biochemical; conditions: 2× Km ATP, 30 minutes at 25° C.
In short: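 Heterodimeric recombinant PI3Kβ was incubated with compound 30 minutes at 25° C. Product was detected by TR-FRET competition with 10 nM labeled PIP3 for 35 nM Eu-GRP-1 PH domain after EDTA stop. Data were normalized to 1 μM wortmannin and DMSO, and IC50 was taken from a four-parameter fit.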

Chain of PI3Kβ (P42338 whole entry, the tested form may be a part, canonical isoform): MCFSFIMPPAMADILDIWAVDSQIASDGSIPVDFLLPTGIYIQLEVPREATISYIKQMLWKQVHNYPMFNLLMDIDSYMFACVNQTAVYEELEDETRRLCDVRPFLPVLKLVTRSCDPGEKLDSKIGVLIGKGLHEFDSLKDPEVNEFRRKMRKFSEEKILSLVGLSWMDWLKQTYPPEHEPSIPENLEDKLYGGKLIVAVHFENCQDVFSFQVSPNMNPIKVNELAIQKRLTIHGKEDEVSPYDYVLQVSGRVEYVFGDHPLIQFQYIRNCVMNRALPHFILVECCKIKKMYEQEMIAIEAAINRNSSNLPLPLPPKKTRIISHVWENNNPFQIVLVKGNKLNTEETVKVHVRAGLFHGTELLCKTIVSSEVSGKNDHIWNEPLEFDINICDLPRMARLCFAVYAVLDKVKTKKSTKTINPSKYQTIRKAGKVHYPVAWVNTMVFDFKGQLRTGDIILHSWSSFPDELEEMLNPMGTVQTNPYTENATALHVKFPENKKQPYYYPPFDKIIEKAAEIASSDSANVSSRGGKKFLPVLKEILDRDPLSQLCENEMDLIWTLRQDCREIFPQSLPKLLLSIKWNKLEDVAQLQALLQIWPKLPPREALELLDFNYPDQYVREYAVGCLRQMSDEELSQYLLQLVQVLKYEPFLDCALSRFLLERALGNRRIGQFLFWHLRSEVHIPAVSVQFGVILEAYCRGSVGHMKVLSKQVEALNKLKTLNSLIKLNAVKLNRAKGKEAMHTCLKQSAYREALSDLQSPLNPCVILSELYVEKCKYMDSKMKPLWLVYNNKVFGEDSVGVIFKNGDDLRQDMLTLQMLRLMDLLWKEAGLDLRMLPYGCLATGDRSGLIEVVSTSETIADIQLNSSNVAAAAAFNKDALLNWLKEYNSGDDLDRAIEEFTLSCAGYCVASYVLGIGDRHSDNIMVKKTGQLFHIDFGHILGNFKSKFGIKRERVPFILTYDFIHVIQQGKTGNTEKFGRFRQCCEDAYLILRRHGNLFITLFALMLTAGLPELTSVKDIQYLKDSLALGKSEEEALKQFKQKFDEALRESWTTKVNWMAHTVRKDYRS
Chain of PI3Kβ (P27986 whole entry partner, the tested form may be a part, canonical isoform): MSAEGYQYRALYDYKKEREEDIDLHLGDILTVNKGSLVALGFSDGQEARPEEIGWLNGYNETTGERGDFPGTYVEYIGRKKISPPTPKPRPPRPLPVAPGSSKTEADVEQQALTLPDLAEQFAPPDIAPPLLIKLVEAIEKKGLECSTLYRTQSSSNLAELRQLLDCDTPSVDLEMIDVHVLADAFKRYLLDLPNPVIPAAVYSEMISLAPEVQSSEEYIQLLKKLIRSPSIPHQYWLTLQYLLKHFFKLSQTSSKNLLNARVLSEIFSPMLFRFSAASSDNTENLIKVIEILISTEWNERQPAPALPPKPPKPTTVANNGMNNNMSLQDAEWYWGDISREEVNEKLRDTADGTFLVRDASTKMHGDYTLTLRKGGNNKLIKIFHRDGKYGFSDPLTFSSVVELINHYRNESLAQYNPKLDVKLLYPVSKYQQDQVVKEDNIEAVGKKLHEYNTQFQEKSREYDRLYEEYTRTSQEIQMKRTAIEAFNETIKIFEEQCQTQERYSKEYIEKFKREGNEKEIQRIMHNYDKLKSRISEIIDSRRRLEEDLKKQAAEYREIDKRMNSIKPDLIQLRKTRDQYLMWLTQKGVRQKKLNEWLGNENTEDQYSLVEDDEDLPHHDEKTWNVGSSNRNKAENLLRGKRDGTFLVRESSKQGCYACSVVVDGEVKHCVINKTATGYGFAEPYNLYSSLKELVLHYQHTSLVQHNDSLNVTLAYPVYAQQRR

| Structure (SMILES) | IC50 [nM] |
| --- | --- |
| Clc1cccc2c(-n3c(-c4ccccn4)nc4c(-c5nnc[nH]5)cc(N5CCOCC5)cc43)ccnc12 [Example 115, 4-[3-(8-chloroquinolin-4-yl)-2-pyridin-2-yl-7-(4H-1,2,4-triazol-3-yl)benzimidazol-5-yl]morpholine] | 14 |
| COCCc1nc2c(-c3nnc[nH]3)cc(N3CCOCC3)cc2n1-c1ccnc2c(Cl)cccc12 [Example 116, 4-[3-(8-chloroquinolin-4-yl)-2-(2-methoxyethyl)-7-(4H-1,2,4-triazol-3-yl)benzimidazol-5-yl]morpholine] | 21 |
| Clc1cccc2c(-n3c(-c4ccn[nH]4)nc4c(-c5nnc[nH]5)cc(N5CCOCC5)cc43)ccnc12 [Example 117, 4-[3-(8-chloroquinolin-4-yl)-2-(1H-pyrazol-5-yl)-7-(4H-1,2,4-triazol-3-yl)benzimidazol-5-yl]morpholine] | 15 |
| Clc1cccc2c(-n3c(-c4cnsc4)nc4c(-c5nnc[nH]5)cc(N5CCOCC5)cc43)ccnc12 [Example 118, 4-[3-(8-chloroquinolin-4-yl)-2-(1,2-thiazol-4-yl)-7-(4H-1,2,4-triazol-3-yl)benzimidazol-5-yl]morpholine] | 52 |
| Clc1cccc2c(-n3c(-c4cncs4)nc4c(-c5nnc[nH]5)cc(N5CCOCC5)cc43)ccnc12 [Example 119, 4-[3-(8-chloroquinolin-4-yl)-2-(1,3-thiazol-5-yl)-7-(4H-1,2,4-triazol-3-yl)benzimidazol-5-yl]morpholine] | 24 |
| Clc1cccc2c(-n3c(-c4cn[nH]c4)nc4c(-c5nnc[nH]5)cc(N5CCOCC5)cc43)ccnc12 [Example 120, 4-[3-(8-chloroquinolin-4-yl)-2-(1H-pyrazol-4-yl)-7-(4H-1,2,4-triazol-3-yl)benzimidazol-5-yl]morpholine] | 27 |
| Cn1cc(-c2nc3c(-c4nnc[nH]4)cc(N4CCOCC4)cc3n2-c2ccnc3c(Cl)cccc23)cn1 [Example 121, 4-[3-(8-chloroquinolin-4-yl)-2-(1-methylpyrazol-4-yl)-7-(4H-1,2,4-triazol-3-yl)benzimidazol-5-yl]morpholine] | 44 |
| Fc1ccc(F)c2c(-n3c(C4COC4)nc4c(-c5nnc[nH]5)cc(N5CCOCC5)cc43)ccnc12 [Example 123, 4-[3-(5,8-difluoroquinolin-4-yl)-2-(oxetan-3-yl)-7-(4H-1,2,4-triazol-3-yl)benzimidazol-5-yl]morpholine] | 110 |
| Cc1ccc(F)c2c(-n3c(C)nc4c(-c5nnc[nH]5)cc(N5CCOCC5)cc43)ccnc12 [Example 124, 4-[3-(5-fluoro-8-methylquinolin-4-yl)-2-methyl-7-(4H-1,2,4-triazol-3-yl)benzimidazol-5-yl]morpholine] | 9 |
| CCc1nc2c(-c3nnc[nH]3)cc(N3CCOCC3)cc2n1-c1ccnc2c(F)ccc(F)c12 [Example 125, 4-[3-(5,8-difluoroquinolin-4-yl)-2-ethyl-7-(4H-1,2,4-triazol-3-yl)benzimidazol-5-yl]morpholine] | 16 |
| Cc1nc2c(-c3nnc[nH]3)cc(N3CCOCC3)cc2n1-c1ccnc2c(F)ccc(Cl)c12 [Example 126, 4-[3-(5-chloro-8-fluoroquinolin-4-yl)-2-methyl-7-(4H-1,2,4-triazol-3-yl)benzimidazol-5-yl]morpholine] | 21 |
| Cc1cccc2nccc(-n3cnc4c(-c5nnc[nH]5)cc(N5CCOCC5)cc43)c12 [Example 127, 4-[3-(5-methylquinolin-4-yl)-7-(4H-1,2,4-triazol-3-yl)benzimidazol-5-yl]morpholine] | 23 |
| Cc1nc2c(-c3nnc[nH]3)cc(N3CCOCC3)cc2n1-c1c(Cl)cnc2ccccc12 [Example 128, 4-[3-(3-chloroquinolin-4-yl)-2-methyl-7-(4H-1,2,4-triazol-3-yl)benzimidazol-5-yl]morpholine] | 51 |
| Cc1nnc(-c2cc(N3CCOCC3)cc3c2nc(C)n3-c2ccnc3c(Cl)cccc23)[nH]1 [Example 129, 4-[3-(8-chloroquinolin-4-yl)-2-methyl-7-(5-methyl-4H-1,2,4-triazol-3-yl)benzimidazol-5-yl]morpholine] | 23 |
| Cc1nnc(-c2cc(N3CCOCC3)cc3c2nc(C)n3-c2ccnc3c(F)cccc23)[nH]1 [Example 130, 4-[3-(8-fluoroquinolin-4-yl)-2-methyl-7-(5-methyl-4H-1,2,4-triazol-3-yl)benzimidazol-5-yl]morpholine] | 87 |
| Cc1nc2c(-c3nnc[nH]3)cc(N3CCOCC3)cc2n1-c1ccnc2cc(F)cc(F)c12 [Example 131, 4-[3-(5,7-difluoroquinolin-4-yl)-2-methyl-7-(4H-1,2,4-triazol-3-yl)benzimidazol-5-yl]morpholine] | 46 |
| Clc1cccc2c(-n3c(C4CNC4)nc4c(-c5nnc[nH]5)cc(N5CCOCC5)cc43)ccnc12 [Example 132, 4-[2-(azetidin-3-yl)-3-(8-chloroquinolin-4-yl)-7-(4H-1,2,4-triazol-3-yl)benzimidazol-5-yl]morpholine] | 380 |

| Structure (SMILES) | IC50 [nM] |
| --- | --- |
| CCc1nc2c(-c3nnc(C)[nH]3)cc(N3CCOCC3)cc2n1-c1ccnc2c(Cl)cccc12 [Example 133, 4-[3-(8-chloroquinolin-4-yl)-2-ethyl-7-(5-methyl-4H-1,2,4-triazol-3-yl)benzimidazol-5-yl]morpholine] | 21 |
| Cc1nnc(-c2cc(N3CCOCC3)cc3c2ncn3-c2ccnc3c(Cl)cccc23)[nH]1 [Example 134, 4-[3-(8-chloroquinolin-4-yl)-7-(5-methyl-4H-1,2,4-triazol-3-yl)benzimidazol-5-yl]morpholine] | 16 |
| Cc1nc2c(-c3nnc(C4CC4)[nH]3)cc(N3CCOCC3)cc2n1-c1ccnc2c(Cl)cccc12 [Example 135, 4-[3-(8-chloroquinolin-4-yl)-7-(5-cyclopropyl-4H-1,2,4-triazol-3-yl)-2-methylbenzimidazol-5-yl]morpholine] | 43 |
| Cc1nc2c(-c3nnc(C(F)(F)F)[nH]3)cc(N3CCOCC3)cc2n1-c1ccnc2c(Cl)cccc12 [Example 136, 4-[3-(8-chloroquinolin-4-yl)-2-methyl-7-[5-(trifluoromethyl)-4H-1,2,4-triazol-3-yl]benzimidazol-5-yl]morpholine] | 48 |
| CCc1nnc(-c2cc(N3CCOCC3)cc3c2nc(C)n3-c2ccnc3c(Cl)cccc23)[nH]1 [Example 137, 4-[3-(8-chloroquinolin-4-yl)-7-(5-ethyl-4H-1,2,4-triazol-3-yl)-2-methylbenzimidazol-5-yl]morpholine] | 17 |
| Cc1nc2c(-c3nnc(C(C)C)[nH]3)cc(N3CCOCC3)cc2n1-c1ccnc2c(Cl)cccc12 [Example 138, 4-[3-(8-chloroquinolin-4-yl)-2-methyl-7-(5-propan-2-yl-4H-1,2,4-triazol-3-yl)benzimidazol-5-yl]morpholine] | 140 |
| CCc1nc2c(-c3nnc[nH]3)cc(N3CCOCC3)cc2n1-c1ccnc2c(F)cccc12 [Example 139, 4-[2-ethyl-3-(8-fluoroquinolin-4-yl)-7-(4H-1,2,4-triazol-3-yl)benzimidazol-5-yl]morpholine] | 14 |
| Cc1nc2c(-c3nnc[nH]3)cc(N3CCOCC3)cc2n1-c1ccnc2c(F)cccc12 [Example 140, 4-[3-(8-fluoroquinolin-4-yl)-2-methyl-7-(4H-1,2,4-triazol-3-yl)benzimidazol-5-yl]morpholine] | 13 |
| CCCc1nc2c(-c3nnc[nH]3)cc(N3CCOCC3)cc2n1-c1ccnc2c(F)cccc12 [Example 141, 4-[3-(8-fluoroquinolin-4-yl)-2-propyl-7-(4H-1,2,4-triazol-3-yl)benzimidazol-5-yl]morpholine] | 10 |
| Cc1nc2c(-c3nnc[nH]3)cc(N3CCOCC3)cc2n1-c1ccnc2c(F)c(F)ccc12 [Example 142, 4-[3-(7,8-difluoroquinolin-4-yl)-2-methyl-7-(4H-1,2,4-triazol-3-yl)benzimidazol-5-yl]morpholine] | 15 |
| Fc1ccc2c(-n3c(C4CC4)nc4c(-c5nnc[nH]5)cc(N5CCOCC5)cc43)ccnc2c1F [Example 143, 4-[2-cyclopropyl-3-(7,8-difluoroquinolin-4-yl)-7-(4H-1,2,4-triazol-3-yl)benzimidazol-5-yl]morpholine] | 84 |
| Fc1cccc2c(-n3c(C4CC4)nc4c(-c5nnc[nH]5)cc(N5CCOCC5)cc43)ccnc12 [Example 144, 4-[2-cyclopropyl-3-(8-fluoroquinolin-4-yl)-7-(4H-1,2,4-triazol-3-yl)benzimidazol-5-yl]morpholine] | 65 |
| Cc1nc2c(-c3nnc[nH]3)cc(N3CCOCC3)cc2n1-c1ccnc2c(F)cc(F)cc12 [Example 145, 4-[3-(6,8-difluoroquinolin-4-yl)-2-methyl-7-(4H-1,2,4-triazol-3-yl)benzimidazol-5-yl]morpholine] | 56 |
| CCCc1nc2c(-c3nnc[nH]3)cc(N3CCOCC3)cc2n1-c1ccnc2c(F)cc(F)cc12 [Example 146, 4-[3-(6,8-difluoroquinolin-4-yl)-2-propyl-7-(4H-1,2,4-triazol-3-yl)benzimidazol-5-yl]morpholine] | 101 |
| Fc1c(N2CCOCC2)cc(-c2nnc[nH]2)c2ncn(-c3ccnc4c(Cl)cccc34)c12 [Example 149, 4-(1-(8-chloroquinolin-4-yl)-7-fluoro-4-(4H-1,2,4-triazol-3-yl)-1H-benzo[d]imidazol-6-yl)morpholine] | 100 |
| Cc1nc2c(-c3nnc[nH]3)cc(N3CCOCC3)c(F)c2n1-c1ccnc2c(Cl)ccc(F)c12 [Example 150, 4-(1-(8-chloro-5-fluoroquinolin-4-yl)-7-fluoro-2-methyl-4-(4H-1,2,4-triazol-3-yl)-1H-benzo[d]imidazol-6-yl)morpholine] | 27 |
| Cc1nnc(-c2cc(N3CCOCC3)cc3c2nc(C)n3-c2ccnc3c(Cl)ccc(Cl)c23)[nH]1 [Example 151, 4-(1-(5,8-dichloroquinolin-4-yl)-2-methyl-4-(5-methyl-4H-1,2,4-triazol-3-yl)-1H-benzo[d]imidazol-6-yl)morpholine] | 44 |

— US10214519B2, “Phosphatidylinositol 3-kinase inhibitors” (Gilead Sciences, Inc., priority 2016, dated 2019)
